In patent US11925653B2, “Combination therapy effective against microorganisms, including drug resistant microorganisms” (Fleurir ABX LLC, priority 2021, dated 2024):
Marks after values point to notes of the source that are not given here.

What was measured:
Escherichia coli = assay: MIC and synergy checkerboard assay, broth microdilution; assay type: cell-based
Description: (§1) The described novel combination was tested against both reference, and clinically resistant strains of S. aureus, E, coli, K. pneumoniae, and P. aeruginosa. Reference and clinical isolates were obtained from the American Type Culture Collection (ATCC, Manasas, VA.) and International Health Management Associates, Inc. (Schaumberg, IL). Bacteria were cultured in trypticase soy broth, concentrated 10-fold by centrifugation, and cryopreserved in the same medium containing 20% glycerol by holding at −80° C. Every two weeks a small amount of frozen culture was removed aseptically, and streaked on fresh trypticase soy agar plates to act as a working inoculum. Following overnight growth at about 37° C., the plates were wrapped in parafilm, and held at about 4° C. Bacteria (4-5 colonies) were then aseptically transferred into broth growth medium for assays as needed.
(§2) Minimum inhibitory concentration (MIC) assays were performed in a manner as described for the CLSI Agar dilution or broth microdilution assay guideline (see, Clinical Laboratory Standards Institute, 2009, Methods for Dilution Antimicrobial Susceptibility Tests for Bacteria That Grow Aerobically; Approved Standard, Eighth Edition, M07-A8, Vol. 29, No. 2). For example, known antibiotics or the compositions described herein were dissolved, serially diluted, and then added to tempered molten Mueller-Hinton Agar before pouring of plates; or were dissolved, and then serially diluted in 100 μL cation-adjusted Mueller-Hinton broth across the assay plate in the classical 2-fold geometric format. D-glucose-6-phosphate was included as a medium supplement in both agar, and broth at a concentration of 50 mg/L. Antibiotic concentrations for agar assay were at the final concentration. Antibiotic concentrations for broth microdilution in each well at this point were double what the final assay concentration would be. Bacterial inocula were prepared by swabbing several colonies from a fresh agar plate, and re-suspending the bacteria to a density that was the 0.5 McFarland turbidity standard, considered close or equivalent to 1×10^8 CFU/mL. For agar dilution, a steers replicator was utilized to deliver 1×10^4 CFU/spot. For broth microdilution, the bacterial inocula were diluted in the cation-adjusted Mueller-Hinton broth to 1×10^6 CFU/mL, and 100 μL was overlayered onto the wells containing a diluted antibiotic or a composition described. Following incubation as per the guideline, results were recorded as growth or no growth, and the lowest concentration of the antibiotic or the composition described where no growth was observed was declared the MIC.
(§3) To assay for synergy of antibacterial combinations, a recognized synergy checkerboard assay, adapted from the CLSI guideline microdilution assay, was utilized (see Eliopoulos, G. M., and Moellering, R. C, Jr., 1996. Antimicrobial Combinations, pg. 330-396. In: Lorian, V. (Ed.), Antibiotics in Laboratory Medicine, 4th Ed., Williams & Wilkins; Baltimore, MD). In the case of the agar dilution method, each antibiotic alone, or in combination was added to agar prior to plate pouring. For broth microdilution, the first compound (or antibiotic or agent) was diluted in cation-adjusted Mueller-Hinton broth across the plate along the horizontal axis with each well in a row containing 50 μL of an identical concentration of compound (or antibiotic). Along the vertical axis a dilution series of the second compound (or antibiotic) was dispensed. At this point the drug concentrations are four-fold of the final desired working concentration. […] Following incubation, wells with no growth are noted. […] FIC=(MIC-A combination/MIC-A alone)+(MIC-B combination/MIC-B alone).
(§4) In the above, FIC: Synergy=FIC<0.5; Additive=FIC>0.5-1; Indifferent=FIC>1-2; Antagonism=FIC>2-4.

K. pneumoniae = assay: as above; assay type: cell-based
Description: as §1, §2, §3, §4

Pseudomonas aeruginosa = assay: as above; assay type: cell-based
Description: as §1, §2, §3, §4

Staphylococcus aureus = assay: as above; assay type: cell-based
Description: as §1, §2, §3, §4

Enterococcus faecalis = assay: as above; assay type: cell-based
N. gonorrhoeae = assay: MIC and synergy checkerboard assay, agar dilution on GC agar; assay type: cell-based
Description: as §2, §3, §4
Synergy is also identified in TABLE 9 (utilizing the agar checkerboard assay) against N. gonorrhoeae. In these analyses, the agar dilution was performed utilizing GC agar supplemented with Isovitalex, and 50 mg/L of D-glucose-6-phosphate. […] MIC comparator data was performed using the following known antibiotics: Ceftriaxone, Azithromycin, Cefixime, Ciprofloxacin, Tetracycline, Pristinamycin, Solithromycin, and Delafloxacin. Pristinamycin was purified from capsules obtained in France; Solithromycin, and Delafloxacin were synthesized internally for comparison.

E. coli = conditions: cited from earlier work

## C[C@@H]1O[C@@H]1P(=O)(O)O [Fosfomycin, cis-1,2-epoxypropyl phosphonic acid]
Escherichia coli; Escherichia coli 846439
  MIC (Combo as F/DP/SM; second compound as DP/SM): 32 mg/L
Escherichia coli; Escherichia coli 846446
  MIC (Combo as F/DP/SM; second compound as DP/SM): 2 mg/L
Escherichia coli; Escherichia coli 846450
  MIC (Combo as F/DP/SM; second compound as DP/SM): 16 mg/L
Escherichia coli; Escherichia coli 857021
  MIC (Combo as F/DP/SM; second compound as DP/SM): 32 mg/L
Escherichia coli; Escherichia coli 863686
  MIC (Combo as F/DP/SM; second compound as DP/SM): 32 mg/L
Escherichia coli; Escherichia coli (854535)
  MIC (Combo as F/DP/SM; second compound as DP/SM): 64 mg/L
Escherichia coli; Escherichia coli (928017)
  MIC (Combo as F/DP/SM; second compound as DP/SM): 64 mg/L
Escherichia coli; Escherichia coli (ATCC 25922)
  MIC (Combo as F/DP/SM; second compound as DP/SM): 8 mg/L
K. pneumoniae; K. pneumoniae 848788
  MIC (Combo as F/DP/SM; second compound as DP/SM): >64* μg/ml
K. pneumoniae; K. pneumoniae 857147
  MIC (Combo as F/DP/SM; second compound as DP/SM): 16 µg/mL
K. pneumoniae; K. pneumoniae 857187
  MIC (Combo as F/DP/SM; second compound as DP/SM): 64 µg/mL
K. pneumoniae; K. pneumoniae 868968
  MIC (Combo as F/DP/SM; second compound as DP/SM): >64* μg/ml
K. pneumoniae; K. pneumoniae 868972
  MIC (Combo as F/DP/SM; second compound as DP/SM): 64 µg/mL
K. pneumoniae; K. pneumoniae 869028
  MIC (Combo as F/DP/SM; second compound as DP/SM): >64* μg/ml
K. pneumoniae; K. pneumoniae 875638
  MIC (Combo as F/DP/SM; second compound as DP/SM): 32 µg/mL
K. pneumoniae; K. pneumoniae 892483
  MIC (Combo as F/DP/SM; second compound as DP/SM): >64* μg/ml
K. pneumoniae; K. pneumoniae 926439
  MIC (Combo as F/DP/SM; second compound as DP/SM): 64 µg/mL
Pseudomonas aeruginosa; P. aeruginosa 826882
  MIC (Combo as F/DP/SM; second compound as DP/SM): 64 µg/mL
Pseudomonas aeruginosa; P. aeruginosa 880238
  MIC (Combo as F/DP/SM; second compound as DP/SM): 64 µg/mL
Pseudomonas aeruginosa; P. aeruginosa 906939
  MIC (Combo as F/DP/SM; second compound as DP/SM): 64 µg/mL
Pseudomonas aeruginosa; P. aeruginosa 926474
  MIC (Combo as F/DP/SM; second compound as DP/SM): 32 µg/mL
Pseudomonas aeruginosa; P. aeruginosa 945543
  MIC (Combo as F/DP/SM; second compound as DP/SM): 32 µg/mL
Pseudomonas aeruginosa; P. aeruginosa 945545
  MIC (Combo as F/DP/SM; second compound as DP/SM): 64 µg/mL
Pseudomonas aeruginosa; P. aeruginosa 945748
  MIC (Combo as F/DP/SM; second compound as DP/SM): 64 µg/mL
Pseudomonas aeruginosa; Pseudomonas aeruginosa (924190)
  MIC (Combo as F/DP/SM; second compound as DP/SM): 256* μg/ml
Pseudomonas aeruginosa; Pseudomonas aeruginosa (985543)
  MIC (Combo as F/DP/SM; second compound as DP/SM): 128* μg/ml
Staphylococcus aureus; S. aureus 829025 (MRSA strains)
  MIC (Combo as F/DP/SM; second compound as DP/SM): 4 µg/mL
Staphylococcus aureus; S. aureus 829049 (MRSA strains)
  MIC (Combo as F/DP/SM; second compound as DP/SM): 8 µg/mL
Staphylococcus aureus; S. aureus 903887 (MRSA strains)
  MIC (Combo as F/DP/SM; second compound as DP/SM): 8 µg/mL
Staphylococcus aureus; S. aureus 920516 (MRSA strains)
  MIC (Combo as F/DP/SM; second compound as DP/SM): 2 µg/mL
Staphylococcus aureus; S. aureus 920962 (MRSA strains)
  MIC (Combo as F/DP/SM; second compound as DP/SM): 2 µg/mL
Staphylococcus aureus; S. aureus 927596 (MRSA strains)
  MIC (Combo as F/DP/SM; second compound as DP/SM): 8 µg/mL
Staphylococcus aureus; S. aureus 938125 (MRSA strains)
  MIC (Combo as F/DP/SM; second compound as DP/SM): 4 µg/mL
Staphylococcus aureus; S. aureus 953041 (MRSA strains)
  MIC (Combo as F/DP/SM; second compound as DP/SM): 8 µg/mL
Staphylococcus aureus; S. aureus 956270 (MRSA strains)
  MIC (Combo as F/DP/SM; second compound as DP/SM): 28 µg/mL
Staphylococcus aureus; S. aureus 956362 (MRSA strains)
  MIC (Combo as F/DP/SM; second compound as DP/SM): 16 µg/mL
Staphylococcus aureus; S. aureus 967287 (MRSA strains)
  MIC (Combo as F/DP/SM; second compound as DP/SM): 8 µg/mL
Staphylococcus aureus; S. aureus 974980 (MRSA strains)
  MIC (Combo as F/DP/SM; second compound as DP/SM): 8 µg/mL
Staphylococcus aureus; S. aureus 979234 (MRSA strains)
  MIC (Combo as F/DP/SM; second compound as DP/SM): 16 µg/mL
Staphylococcus aureus; S. aureus 1045190 (MRSA strains)
  MIC (Combo as F/DP/SM; second compound as DP/SM): 2 µg/mL
Staphylococcus aureus; Staphylococcus aureus (918019 - MRSA)
  MIC (Combo as F/DP/SM; second compound as DP/SM): 32 µg/mL
Staphylococcus aureus; Staphylococcus aureus (959797 - MRSA)
  MIC (Combo as F/DP/SM; second compound as DP/SM): 16 µg/mL
Staphylococcus aureus; Staphylococcus aureus (ATCC 29213 - MSSA)
  MIC (Combo as F/DP/SM; second compound as DP/SM): 32 µg/mL
Staphylococcus aureus; Staphylococcus aureus (ATCC 33591)
  MIC (Combo as F/DP/SM; second compound as DP/SM): 64 µg/mL
Staphylococcus aureus; Staphylococcus aureus (MGH-04)
  MIC (Combo as F/DP/SM; second compound as DP/SM): 128* μg/ml
Staphylococcus aureus; Staphylococcus aureus (USA-300 CDC- MRSA)
  MIC (Combo as F/DP/SM; second compound as DP/SM): 64 µg/mL
Enterococcus faecalis; E. faecalis 1082155
  MIC (Combo as F/DP/SM; second compound as DP/SM): 32 µg/mL
Enterococcus faecalis; E. faecalis 1120278
  MIC (Combo as F/DP/SM; second compound as DP/SM): 64 µg/mL
Enterococcus faecalis; E. faecalis 1129099
  MIC (Combo as F/DP/SM; second compound as DP/SM): 4 µg/mL
Enterococcus faecalis; E. faecalis 1175598
  MIC (Combo as F/DP/SM; second compound as DP/SM): 32 µg/mL
Enterococcus faecalis; E. faecalis 10864321
  MIC (Combo as F/DP/SM; second compound as DP/SM): 32 µg/mL
Enterococcus faecalis; Enterococcus faecalis (ATCC 29212)
  MIC (Combo as F/DP/SM; second compound as DP/SM): 64 µg/mL
Enterococcus faecalis; Enterococcus faecalis (MGH-01) (VanA)
  MIC (Combo as F/DP/SM; second compound as DP/SM): 256* μg/ml
Enterococcus faecalis; Enterococcus faecalis (MGH-06)
  MIC (Combo as F/DP/SM; second compound as DP/SM): 128* μg/ml
N. gonorrhoeae; N. gonorrhoeae 127781
  MIC (Combo as F/DP/SM; second compound as DP/SM): 16 mg/L
N. gonorrhoeae; N. gonorrhoeae 127782
  MIC (Combo as F/DP/SM; second compound as DP/SM): 16 mg/L
N. gonorrhoeae; N. gonorrhoeae 127783
  MIC (Combo as F/DP/SM; second compound as DP/SM): 16 mg/L
N. gonorrhoeae; N. gonorrhoeae 127786
  MIC (Combo as F/DP/SM; second compound as DP/SM): 16 mg/L
N. gonorrhoeae; N. gonorrhoeae 1117522
  MIC (Combo as F/DP/SM; second compound as DP/SM): 16 mg/L
N. gonorrhoeae; N. gonorrhoeae 1117523
  MIC (Combo as F/DP/SM; second compound as DP/SM): 16 mg/L
N. gonorrhoeae; N. gonorrhoeae 1117524
  MIC (Combo as F/DP/SM; second compound as DP/SM): 8 mg/L
N. gonorrhoeae; N. gonorrhoeae 1117525
  MIC (Combo as F/DP/SM; second compound as DP/SM): 8 mg/L
N. gonorrhoeae; N. gonorrhoeae 1117527
  MIC (Combo as F/DP/SM; second compound as DP/SM): 8 mg/L
E. coli
  MIC: 0.5 to 2 mg/L
